Reference: ChEMBL document CHEMBL1155928, “Synthesis and structure-activity relationships of berberine analogues as a novel class of low-density-lipoprotein receptor up-regulators” (2008)

These compounds were tested on HepG2 (assay: Upregulation of LDLR mRNA expression in human HepG2 cells after 8 hrs by RT-PCR relative to control).
Assay type: functional

Compound | Activity
Oc1ccc2cc3[n+](cc2c1)CCc1cc2c(cc1-3)OCO2.[Cl-] | 5.16
CCCOc1cc2cc3[n+](cc2cc1OC)CCc1cc2c(cc1-3)OCO2.[Cl-] | 2.35
COc1cc2cc3[n+](cc2c(OC)c1OC)CCc1cc2c(cc1-3)OCO2.[Cl-] | 3.16
CCOc1ccc2cc3[n+](cc2c1OCC)CCc1cc2c(cc1-3)OCO2.[Cl-] | 2.13
CCCOc1ccc2cc3[n+](cc2c1OCCC)CCc1cc2c(cc1-3)OCO2.[Cl-] | 2.21
CCOc1ccc2cc3[n+](cc2c1OC)CCc1cc2c(cc1-3)OCO2.[Cl-] | 2.35
CCCOc1ccc2cc3[n+](cc2c1)CCc1cc2c(cc1-3)OCO2.[Cl-] | 2.13
COc1ccc2cc3[n+](cc2c1)CCc1cc2c(cc1-3)OCO2.[Cl-] | 2
CCCOc1cc2c[n+]3c(cc2cc1OC)-c1cc2c(cc1CC3)OCO2.[Cl-] | 1.94
COc1cc2c[n+]3c(cc2cc1O)-c1cc2c(cc1CC3)OCO2.[Cl-] | 2.2
CCOc1cc2c[n+]3c(cc2cc1O)-c1cc2c(cc1CC3)OCO2.[Cl-] | 1.8
CCOc1cc2c[n+]3c(cc2cc1OC)-c1cc2c(cc1CC3)OCO2.[Cl-] | 2.17
CCOc1cc2cc3[n+](cc2cc1OC)CCc1cc2c(cc1-3)OCO2.[Cl-] | 2.1
COc1cc2cc3[n+](cc2cc1O)CCc1cc2c(cc1-3)OCO2.[Cl-] | 1.6
COc1cc2c[n+]3c(cc2c(OC)c1OC)-c1cc2c(cc1CC3)OCO2.[Cl-] | 3.01
CCCOc1ccc2cc3[n+](cc2c1OC)CCc1cc2c(cc1-3)OCO2.[Cl-] | 2.3
[Cl-].c1ccc2c[n+]3c(cc2c1)-c1cc2c(cc1CC3)OCO2 | 2.95
CCOc1ccc2cc3[n+](cc2c1)CCc1cc2c(cc1-3)OCO2.[Cl-] | 2.9
COc1ccc2cc3[n+](cc2c1OC)CCc1cc2c(cc1-3)OCO2.[Cl-] [BERBERINE CHLORIDE] | 5.3
COc1cc2cc3[n+](cc2cc1OC)CCc1cc2c(cc1-3)OCO2.[Cl-] [PSEUDOBERBERINE] | 8.5
